Assay in all cases: modified ELISA on progesterone-coated plate, Scatchard plot
For experiment [1], the target named is T1, rScyreprocin/rSCY2 mixture.
T1 construct: gene scyreprocin; complex not isolated, stoichiometry unknown
The format is binding, Scylla paramamosain. The conditions noted are these: protein mixture 0-24 uM on plate coated with 3 ug progesterone; antibody detection; both proteins present.

The next experiment concerns the target T2, rScyreprocin (Scylla paramamosain, UniProt A0A7D0GB18).
T2 construct: recombinant His-tagged scyreprocin, purified
T2 sequence (A0A7D0GB18 1-84): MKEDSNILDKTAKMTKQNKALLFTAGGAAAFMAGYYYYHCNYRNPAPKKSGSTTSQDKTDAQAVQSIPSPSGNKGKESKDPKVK
In kind it is binding.

The next experiment has as its target T3, rSCY2 (Scylla paramamosain, UniProt A0AAW0UAN3).
T3 construct: gene SCY2; recombinant His-tagged SCY2, purified
The format is binding. The settings on record: protein 0-24 uM on plate coated with 3 ug progesterone; antibody detection; rSCY2 alone.

By Kd is commonly meant the constant that tells how readily two partners part at equilibrium.

Molecules are shown by their SMILES.

T3 sequence (A0AAW0UAN3 25-124 limits assumed): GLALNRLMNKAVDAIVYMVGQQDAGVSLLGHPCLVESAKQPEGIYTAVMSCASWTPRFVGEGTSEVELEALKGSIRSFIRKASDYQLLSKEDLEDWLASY

On to `CC(=O)[C@H]1CC[C@H]2[C@@H]3CCC4=CC(=O)CC[C@]4(C)[C@H]3CC[C@]12C` [progesterone], for which the values for the Kd (in experiment [1]; at rScyreprocin; on rSCY2) were 72.2 nM, 259 nM and 143 nM, respectively.

The values are drawn from article PMC8952799, “Two Male-Specific Antimicrobial Peptides SCY2 and Scyreprocin as Crucial Molecules Participated in the Sperm Acrosome Reaction of Mud Crab Scylla paramamosain” (International Journal of Molecular Sciences, 2022).
